Test results reported in US20220117913A1, “DEZOCINE DERIVATIVE AND MEDICAL USE THEREOF” (YANGTZE RIVER PHARMACEUTICAL GROUP CO., LTD., priority 2019, published 2022).
Structures can show the parent of a compound that is named as a salt. Where two headings read alike, the source gives them in different places.

Experiments:
μ opioid receptor = μ opioid receptor (Homo sapiens, UniProt P35372); assay: radioisotope ligand competitive binding assay, μ opioid receptor (MOR); details: [3H]DAMGO 0.5 nM, cell membrane of stably transfected cells; read-out: μ IC50
κ opioid receptor = κ opioid receptor (Homo sapiens, UniProt P41145); assay: radioisotope ligand competitive binding assay, κ opioid receptor (KOR); details: [3H]Diprenorphine 0.3 nM, cell membrane of stably transfected cells; read-out: κ IC50
Source text: (§1) Through the radioisotope ligand competitive binding assay, IC50 of the compound was used as an indicator to evaluate the affinity of the compound to κ and δ opioid receptors.
(§2) (1) Reagents • The cell membrane was extracted from stably transfected cells constructed by WuXi AppTec, Shanghai. • 3H-diprenophrine (PerkinElmer, Cat: NET1121250UC, Lot: 2143599) • 3H-DAMGO (PerkinElmer, Cat: NET902250UC, Lot: 2139100) • 3H-DADLE (PerkinElmer, Cat: NET648250UC, Lot: 2060549) • Tris base (Sigma, Cat: T6066-1KG), prepare 1M stock and adjust pH to 7.4. • 0.5M EDTA (Invitrogen, Cat: 15575-038) • 1M MgCl2 (Sigma, Cat: M1028-100 ml) • PEI (Poly ethyleneimine) (Sigma, Cat: P3143) • Microscint 20 cocktail (PerkinElmer, Cat: 6013329) • Naltrindole (Sigma, Cat; N115) • (±)trans-U-50488 (Sigma, Cat: D8040) • DAMGO (Sigma, Cat: E7384)
(§3) (1) 1 μL of the test compounds, negative control (i.e., DMSO) and positive control (i.e., non-specific binding well compound), after being prepared, were respectively transferred to a 96-well plate;
(§4) (2) 99 μL of the prepared opioid receptor membrane protein was added to each well of the 96-well plate containing 1 μL of the compound;
(§5) (3) 100 μL of 2× corresponding radioisotope ligand was added to each well;
(§6) (4) The plate was placed on a shake and incubated at room temperature for 1 hour;
(§7) (5) Each well of the GF/C plate was soaked with 50 μL of 0.3% PEI for at least half an hour in advance;
(§8) (6) After the incubation was finished, the GF/C plate was washed with plate washing buffer once by using Harvest. Then, the cell membranes in the 96-well plate were collected onto the GF/C plate using Harvest, and the GF/C plate was washed four times with the plate washing buffer, each time about 250 μL;
(§9) (7) The GF/C plate was placed in an oven at 50° C. for 1 hour;
(§10) (8) The bottom of the GF/C plate was sealed with a plate sealing film, 50 μL of Microscint-20 scintillation fluid was added to each well, and then the plate was sealed with a transparent sealing film for microplate;
(§11) (9) The radioactive signal value CPM was read using MicroBeta2;
(§12) (10) The data was analyzed with Prism 5. The percentage inhibition rate was calculated with the calculation formula: % Inh=(1-Background subtracted Assay value/Background subtracted HC value)*100.

δ opioid receptor = δ opioid receptor (Homo sapiens, UniProt P41143); assay: radioisotope ligand competitive binding assay, δ opioid receptor (DOR); details: [3H]-DADLE 0.5 nM, cell membrane of stably transfected cells; read-out: δ IC50
Source text: as §1, §2, §3, §4, §5, §6, §7, §8, §9, §10, §11, §12

[1] = test system: pain induced by heat radiation in mice; assay: pain induced by heat radiation in mice (light and heat-induced pain); format: in vivo; details: for ED50: Mus musculus; for analgesic effect (comparison in words): four mouse models of pain (heat radiation and hot plate), versus dezocine
Source text: (§13) A mode of pain induced by heat radiation in mice and a mode of pain induced by hot plate in mice were used to evaluate the analgesic intensity of the test compounds.

[2] = pharmacokinetic investigation of intravenous administration in mice; format: in vivo; details: mouse; male mice, intravenous injection, plasma
Experimental: Male mice were injected intravenously with the compound of the present disclosure, and the concentration of the unchanged compound in plasma and the concentration of the metabolite of dezocine hydrochloride were measured after the administration.

[3] = test system: pain induced by hot plate in mice; assay: pain induced by hot plate in mice; format: in vivo; details: Mus musculus; male mice
Source text: as §13

[4] = female mice, read-out: Light and heat-induced pain ED50 Female
[5] = male mice, read-out: Light and heat-induced pain ED50 Male

| SMILES | IC50 (μ opioid receptor) | IC50 (κ opioid receptor) | IC50 (δ opioid receptor) | ED50 [1, 4] | ED50 [1, 5] | Light and heat-induced pain ED95 Female ([1]; female mice) | Light and heat-induced pain ED95 Male ([1]; male mice) | half-life [2] | analgesic effect (comparison in words) [1] | ED50 [3] |
| --- | --- | --- | --- | --- | --- | --- | --- | --- | --- | --- |
| C[C@@]12CCCCC[C@@H](Cc3ccc(O)cc31)[C@@H]2NCCc1ccccc1 [Hydrochloride of compound 25] | < 10 nM | 100 to 1000 nM | 100 to 1000 nM | 1.15 mg/kg | 0.74 mg/kg | 2.88 mg/kg | 1.18 mg/kg | 1.65 h |  |  |
| C[C@@]12CCCCC[C@@H](Cc3ccc(O)cc31)[C@@H]2NCc1ccccc1 [Hydrochloride of compound 26] | < 10 nM | < 10 nM | < 10 nM | 0.025 mg/kg | 0.017 mg/kg | 0.043 mg/kg | 0.021 mg/kg | 1.35 h | strongest analgesic effect | 0.045 mg/kg |
| CCCCN[C@H]1[C@H]2CCCCC[C@]1(C)c1cc(O)ccc1C2 [Hydrochloride of compound 21] | < 10 nM | 10 to 100 nM | 10 to 100 nM | 0.068 mg/kg | 0.12 mg/kg | 0.083 mg/kg | 0.18 mg/kg | 1.27 h |  | 0.15 mg/kg |
| CCCCCN(C)[C@H]1[C@H]2CCCCC[C@]1(C)c1cc(OC)ccc1C2 [Hydrochloride of compound 16] | 100 to 1000 nM | > 10000 nM | > 10000 nM |  |  |  |  |  |  |  |
| C[C@@]12CCCCC[C@@H](Cc3ccc(O)cc31)[C@@H]2N (relative stereo) [dezocine hydrochloride, (−)-[5R-(5a,11a,13S*)]-13-amino-5,6,7,8,9,10,11,12-octahydro-5-methyl-5,11-methylene benzocyclodecen-3-ol, reference compound] |  |  |  |  |  |  |  | 0.903 h |  |  |
| COc1ccc2c(c1)[C@@]1(C)CCCCC[C@@H](C2)[C@@H]1NCc1ccccc1 [Hydrochloride of compound 9] | 100 to 1000 nM | 100 to 1000 nM | 1000 to 10000 nM |  |  |  |  |  |  |  |
| CN[C@H]1[C@H]2CCCCC[C@]1(C)c1cc(O)ccc1C2 [Hydrochloride of compound 18] | 10 to 100 nM | 100 to 1000 nM | 1000 to 10000 nM |  |  |  |  |  |  |  |
| CCCCCN[C@H]1[C@H]2CCCCC[C@]1(C)c1cc(O)ccc1C2 [Hydrochloride of compound 22] | < 10 nM | 10 to 100 nM | 10 to 100 nM | 0.18 mg/kg | 0.13 mg/kg | 0.26 mg/kg | 0.26 mg/kg | 1.24 h | stronger than dezocine | 0.3 mg/kg |
| CCCN[C@H]1[C@H]2CCCCC[C@]1(C)c1cc(OC)ccc1C2 [Hydrochloride of compound 3] | 10 to 100 nM | 100 to 1000 nM | > 10000 nM |  |  |  |  |  |  |  |
| COc1ccc2c(c1)[C@@]1(C)CCCCC[C@@H](C2)[C@@H]1N(C)C [Hydrochloride of compound 11] | 100 to 1000 nM | > 10000 nM | > 10000 nM |  |  |  |  |  |  |  |
| COc1ccc2c(c1)[C@@]1(C)CCCCC[C@@H](C2)[C@@H]1N(C)CCc1ccccc1 [Hydrochloride of compound 13] | 100 to 1000 nM | > 10000 nM | > 10000 nM |  |  |  |  |  |  |  |
| C[C@@]12CCCCC[C@@H](Cc3ccc(O)cc31)[C@@H]2N1CCCC1 [Hydrochloride of compound 29] | 10 to 100 nM | 1000 to 10000 nM | 1000 to 10000 nM |  |  |  |  |  |  |  |
| COc1ccc2c(c1)[C@@]1(C)CCCCC[C@@H](C2)[C@@H]1NCCc1ccccc1 [Hydrochloride of compound 8] | 10 to 100 nM | > 10000 nM | > 10000 nM |  |  |  |  |  |  |  |
| C[C@@]12CCCCC[C@@H](Cc3ccc(OCc4ccccc4)cc31)[C@@H]2N [Hydrochloride of compound 36] | 10 to 100 nM | 1000 to 10000 nM | 1000 to 10000 nM |  |  |  |  |  |  |  |
| CN[C@H]1[C@H]2CCCCC[C@]1(C)c1cc(OC)ccc1C2 [Hydrochloride of compound 1] | 100 to 1000 nM | 1000 to 10000 nM | > 10000 nM |  |  |  |  |  |  |  |
| COc1ccc2c(c1)[C@@]1(C)CCCCC[C@@H](C2)[C@@H]1NCCc1ccc(Cl)c(Cl)c1 [Hydrochloride of compound 10] | 100 to 1000 nM | 1000 to 10000 nM | > 10000 nM |  |  |  |  |  |  |  |
